Assay results: paper PMC10525890, “Selective Inhibition of Cardiac Late Na^+ Current Is Based on Fast Offset Kinetics of the Inhibitor” (Biomedicines, 2023)
“And” between values parts separate entries of the source, which are not always exact repeats. Equal values may be shown once.

Columns and labels:
[1] = tested on: late Na+ current (INaL); assay: INaL dissected by drug under action potential voltage clamp (APVC) in isolated ventricular myocytes; assay type: cell-based, canine; conditions: cycle length 700 ms, 37 °C, 1 µM GS967, 20 µM mexiletine, 10 µM quinidine, mean ± SEM
Description: (§1) Single canine ventricular myocytes were isolated using a segment perfusion technique, as previously described. Briefly, the LAD coronary artery was cannulated and used for supplying solutions required for the dissociation of the individual cells with minimal injury. After dissection, the tissue was first perfused with a nominally Ca^2+-free solution (Minimum Essential Medium Eagle, Joklik Modification, Sigma-Aldrich Co., St. Louis, MO, USA) for 5 min in order to reduce the Ca^2+ load and also to promote the uncoupling of cell-to-cell junctions. Following this, the perfusate was supplemented with 1 mg/mL collagenase (Type II, final activity of 224 U/mL, Worthington Biochemical Co., Lakewood, NJ, USA) and 0.2% bovine serum albumin (Fraction V., Sigma) in the presence of 50 µM Ca^2+. This step was applied for 30 min to digest the collagen fibers in the extracellular matrix, resulting in the release of individual cells. […] The cells were kept at 15 °C before use, allowing normalization of their intracellular ionic composition. All chemicals applied in these experiments were purchased from Sigma-Aldrich Co. (St. Louis, MO, USA).
(§2) The cells, studied by an inverted microscope, were continuously superfused with a modified Tyrode at a rate of 1–2 mL/min. The modified Tyrode solution contained (in mM): NaCl: 121; KCl: 4; CaCl2: 1.3; MgCl2: 1; HEPES: 10; NaHCO3: 25; glucose: 10; pH: 7.35; osmolarity: 300 ± 3 mOsm. The temperature of this perfusate was set to 37 °C with a temperature controller (Cell MicroControls, Norfolk, VA, USA). Electrical signals were generated, amplified and recorded using a MultiClamp 700A or 700B amplifier under the control of pClamp 10 software (Molecular Devices, Sunnyvale, CA, USA) after analogue-to-digital conversion (Digidata 1440A or 1332, Molecular Devices). The electrodes were manufactured from borosilicate glass. The tip resistance of these micropipettes ranged between 2 and 3 MΩ when filled with pipette solution. Ion currents were recorded under whole-cell voltage clamp conditions. The series resistance was typically 4–8 MΩ. The measurement was discarded when the series resistance changed substantially during the experimental period.
APVC experiments were performed according to the methods described previously. This technique allows for the visualization of various ion currents flowing during an actual ventricular AP by using a selective inhibitor of the respective ion current. In these experiments, therefore, a midmyocardial canine ventricular AP was applied as a command signal. The current traces were continuously recorded before and after a 5 min superfusion with the applied Na^+ channel inhibitor. The drug-sensitive current was obtained by subtracting the post-drug trace from the reference pre-drug trace. When measuring INaL, the external solution was supplemented with 1 µM nisoldipine, 1 µM E4031 and 100 µM chromanol 293B, in order to eliminate contaminations by Ca^2+ and K^+ currents. The pipette solution contained (in mM): K-aspartate, 120; KCl, 30; MgATP, 3; HEPES, 10; Na2-phosphocreatine, 3; EGTA, 0.01; cAMP, 0.002; KOH, 10; at pH = 7.3; osmolarity of 285 mOsm. The amplitude of INaL was measured at 50% duration of the APD90 value of the command AP. The initial 20 ms period following the AP upstroke was excluded from evaluation when determining the current integral in order to eliminate the contribution of INaP. A total of 20 consecutive current traces were averaged and analyzed in each experiment to reduce the noise and the trace-to-trace fluctuations of the AP configuration. Ion currents were normalized to cell capacitance, determined by applying a short (15 ms) hyperpolarizing pulse from +10 mV to −10 mV.

[2] = tested on: late Na+ current (INaL); assay: INaL under conventional voltage clamp (2 s pulses to −20 mV from −120 mV) in isolated ventricular myocytes; assay type: cell-based, canine; conditions: for inhibition of INaL current integral: 1 µM GS967, 20 µM mexiletine, 10 µM quinidine; for inhibition of INaL density: at 50 ms, 1 µM GS967 (n = 6), 20 µM mexiletine (n = 5), 10 µM quinidine (n = 6); for INaL current integral (charge carried), post-drug: initial 20 ms excluded, 1 µM GS967 (pre-drug −69.1 ± 7.9), 20 µM mexiletine (pre-drug −68.6 ± 6.2), 10 µM quinidine (pre-drug −68.2 ± 11.7); for INaL density at 50 ms after start of pulse, post-drug: −20 mV from −120 mV, 1 µM GS967 (pre-drug −0.313 ± 0.035), 20 µM mexiletine (pre-drug −0.337 ± 0.035), 10 µM quinidine (pre-drug −0.333 ± 0.043)
Description: as §1, §2
Rectangular command pulses were applied in conventional voltage clamp experiments to study the effects on INaL at stable test potentials, as described previously. The cells were perfused with HEPES-buffered Tyrode solution containing (in mM): NaCl, 144; NaH2PO4, 0.4; KCl, 4.0; CaCl2, 1.8; MgSO4, 0.53; glucose, 5.5; HEPES, 5.0; at pH = 7.4. This solution contained 1 µM nisoldipine, 0.5 µM HMR-1556 and 0.1 µM dofetilide in order to block the Ca^2+ and K^+ currents. The pipette solution contained (in mM): CsCl, 125; TEACl, 20; MgATP, 5; EGTA, 10; HEPES, 10; at pH = 7.2. Test pulses of 2 s duration were clamped to −20 mV from the holding potential of −120 mV. The total amount of INaL was determined by pharmacological subtraction using a final superfusion with 20 µM TTX. The amplitude of INaL was determined at 50 ms following the start of the pulse. When measuring the charge carried by INaL (integral), the initial 20 ms of the current was excluded from evaluation to minimize the contamination with INaP.

[3] = tested on: peak Na+ current (INaP) estimated as V+max; assay: Steady-state V+max of action potential upstroke (indicator of INaP), right ventricular papillary muscle, sharp microelectrode; assay type: cell-based, canine; conditions: 1 µM GS967, 20 µM mexiletine, 10 µM quinidine; for V+max block: cycle length 700 ms; for cycle lengths at which V+max was significantly reduced: cycle lengths 0.3-5 s tested
Description: (§3) Right ventricular papillary muscles were applied for AP recordings using the conventional sharp microelectrode technique, as described previously. Membrane potential changes were recorded at 37 °C using sharp microelectrodes filled with 3 M KCl (tip resistance 10–20 MΩ) and connected to the input of an amplifier (MDE GmbH, Heidelberg, Germany). The preparations were stimulated with current pulses having durations of 1 ms and amplitudes of 200% diastolic threshold using a pair of platinum electrodes. Before starting the experiment, the preparations were paced at a cycle length of 1 s for at least 60 min allowing equilibration. After this period, the cycle length was sequentially changed between 0.3 and 5 s and the 25th AP was recorded at each cycle length. […] APs were sampled at 100 kHz with an ADA 3300 data acquisition board (Real Time Devices Inc., State Collage, PA, USA) and stored for later analysis.

[4] = tested on: peak Na+ current (INaP) estimated as V+max; assay: Offset kinetics: restitution of V+max with extra stimuli after 1 Hz trains; assay type: cell-based, canine; conditions: monoexponential fit, basic cycle length 1 s; 1 µM GS967, 20 µM mexiletine
Description: as §3

[5] = tested on: peak Na+ current (INaP) estimated as V+max; assay: Onset kinetics of V+max block during 2.5 Hz train after 1 min rest; assay type: cell-based, canine; conditions: initial 40 APs, 1 µM GS967, 20 µM mexiletine, 10 µM quinidine
Description: as §3
The onset kinetics of drug action on V^+max were determined by stimulating the preparation at a short cycle length of 0.4 s following a 1 min period of rest and the initial 40 APs were recorded. The V^+max values of the consecutive APs were plotted as a function of the number of the AP within the train. The onset rate constant was determined by fitting the consecutive V^+max values to a monoexponential function.

[6] = tested on: Nav1.8; conditions: stated in discussion, no reference given; cited from earlier work
[7] = tested on: Nav2.1; conditions: stated in discussion, no reference given; cited from earlier work
[8] = tested on: Nav1.1; parameters: method as in PMID 31730442; conditions: cited from earlier work
[9] = tested on: Nav1.5; parameters: method as in PMID 27136942, PMID 32938719; conditions: cited from earlier work
[10] = tested on: INaL over INaP; conditions: cited from earlier work

| SMILES | drug-sensitive INaL current density measured at 50% duration of APD90 of the command AP [1] [A/F] | drug-sensitive INaL current integral (initial 20 ms excluded) [1] [mC/F] | inhibition of INaL current integral [2] [%] | inhibition of INaL density [2] [%] | INaL current integral (charge carried), post-drug [2] [mC/F] | INaL density at 50 ms after start of pulse, post-drug [2] [A/F] | V+max block [3] [%] | cycle lengths at which V+max was significantly reduced [3] [ms] | offset time constant (recovery of V+max) [4] [ms] | onset rate constant of V+max block [5] | inhibition of Nav1.8 [6] | inhibition of Nav2.1 [7] | sensitivity of neuronal Nav1.1 [8] | block of cardiac Nav1.5 channel isoform [9] | selectivity for INaL over INaP [10] [fold] |
| --- | --- | --- | --- | --- | --- | --- | --- | --- | --- | --- | --- | --- | --- | --- | --- |
| FC(F)(F)Oc1ccc(-c2ccc3nnc(C(F)(F)F)n3c2)cc1 [GS967] | −0.37 ± 0.07 | −56.7 ± 9.1 | 79.0 | 80.4 ± 2.2 | −15.4 ± 3.9 | −0.062 ± 0.01 | 2.3 | < 500 | 110 ± 6 | 6.4 ± 0.9 AP and 5.3±0.8 AP | does not inhibit | does not inhibit | sensitive | strongly block | – |
| COc1ccccc1OCC(O)CN1CCN(CC(=O)Nc2c(C)cccc2C)CC1 (stereo not drawn) [ranolazine] | – | – | – | – | – | – | – | – | – | – | – | – | – | – | 38 |
| Cc1cccc(C)c1OCC(C)N (stereo not drawn) [mexiletine] | −0.375 ± 0.07 | −65.2 ± 11.5 | 46.1 | 41.9 ± 3.7 | −37.0 ± 4.7 | −0.197 ± 0.026 | 11.4 | < 700 | 456 ± 284 | 3.4 ± 0.4 AP | – | – | – | – | – |
| CCCCc1oc2ccccc2c1C(=O)c1cc(I)c(OCCN(CC)CC)c(I)c1 [amiodarone] | – | – | – | – | – | – | – | – | – | – | – | – | – | – | 13 |
| O=C(NCC1CCCCN1)c1cc(OCC(F)(F)F)ccc1OCC(F)(F)F (stereo not drawn) [flecainide] | – | – | – | – | – | – | – | – | – | – | – | – | – | – | 3 |
| C=C[C@H]1C[N@@]2CC[C@H]1C[C@@H]2[C@@H](O)c1ccnc2ccc(OC)cc12 [quinidine] | −0.377 ± 0.06 | −61.2 ± 8.8 | 37.1 | 43.3 ± 2.2 | −42.9 ± 9.2 | −0.186 ± 0.02 | – | – | – | – | – | – | – | – | – |
